The test system of the assay is virus-infected cells, CPE inhibition, dose response. In words: PubChem AID 806. The note with it: for EC90: measured here: EC90 CPE inhibition; for CC50: measured here: cytotoxicity, cell viability IC50.

Active and inactive are the calls of the source. The rule behind the calls is not given here.

Turning to `COc1ccc(NS(=O)(=O)c2ccc(OC)c(N(C)S(=O)(=O)c3ccc(Cl)cc3)c2)cc1`, the EC90 (in general, the concentration at which the effect reaches the 90% level) is more than 60 µM and the CC50 (commonly the concentration giving 50% cytotoxicity) amounted to 22.9 µM.
Turning to `CN1c2ccsc2C(O)=C(C(=O)Nc2ccccc2)S1(=O)=O`, the EC50 (commonly the concentration that produces a half-maximal response) is > 60 µM (inactive), the 90% effect concentration (EC90) is more than 60 µM and the CC50 is more than 60 µM.
Turning to `O=C(Nc1cccnc1)c1cc2c(ccc3ccccc32)o1`, the EC50 was > 60 µM (inactive), the EC90 was more than 60 µM and the CC50 was more than 60 µM.
For `COCc1cc(=O)n2c(-c3ccccc3OC)n[nH]c2n1`, the EC50 was > 60 µM (inactive), the 90% effect concentration (EC90) was more than 60 µM and the 50% cytotoxic concentration (CC50) is more than 60 µM.
Consider `N#CCC(=O)N1CCn2c1nc1ccccc12`, for which the EC50 is > 60 µM (inactive), the EC90 is more than 60 µM and the CC50 was more than 60 µM.
As to `COc1ccc(C(=O)C(CN2CCOCC2)c2ccccc2)cc1` (configuration not stated), the EC50 is > 60 µM (inactive), the EC90 is more than 60 µM and the CC50 was more than 60 µM.
In the case of `CCOCCCNC(=O)C1CCCCN1S(=O)(=O)c1ccc(F)cc1` (configuration not stated), the EC50 was > 60 µM (inactive), the 90% effect concentration (EC90) is more than 60 µM and the half-maximal cytotoxic concentration (CC50) was more than 60 µM.
Take `COc1cccc(C(=O)Nc2ccc(-c3nnc(-c4ccco4)o3)cc2)c1`: the EC50 was > 60 µM (inactive), the concentration for an effect of 90% (EC90) is more than 60 µM and the CC50 was more than 60 µM.
Take `COc1ccc(C2NC(=O)NC3=C2CCc2ccccc23)cc1` (configuration not stated): the EC50 was 3.6 µM, the concentration for an effect of 90% (EC90) was more than 60 µM and the half-maximal cytotoxic concentration (CC50) was more than 60 µM.
On to `COCCCNC(=O)C1CCCCN1S(=O)(=O)c1ccc(F)cc1` (configuration not stated), for which the EC50 is > 60 µM (inactive), the EC90 is more than 60 µM and the CC50 is more than 60 µM.
Consider `COc1ccc(OC)c(Nc2ncnc3c2cnn3-c2cccc(C)c2)c1`, for which the EC50 is > 60 µM (inactive), the EC90 is more than 60 µM and the CC50 is more than 60 µM.

(Values after PubChem BioAssay AID806 (SRMLSC, 2007).)
